Calls of active or inactive are those of the source. No cut-off for these calls is given here.
Columns and labels:
[1] = biological target: Epidermal growth factor receptor (Homo sapiens, UniProt P00533); experiment: Inhibition of EGFR tyrosine kinase expressed in A431 cells
NIH3T3 [2] = experiment: Inhibition of serum-stimulated growth of NIH3T3 cells after 3 days by SRB assay
DU-145 [3] = experiment: Growth inhibition of human DU145 cells after 3 days by SRB assay
NIH3T3 [4] = experiment: Inhibition of serum-stimulated growth of NIH3T3 cells transfected with HER14 after 3 days by SRB assay
DU-145 [5] = experiment: Induction of DNA interstand cross links in human DU145 cells assessed as decrease in comet tail moment after irradiation by single cell gel electrophoresis assay; format: functional, cell-based
DU-145 [6] = experiment: Induction of cell cycle arrest in human DU145 cells assessed as accumulation at G1 phase at 10 uM after 24 hrs by flow cytometry; format: functional, cell-based
DU-145 [7] = experiment: Induction of cell cycle arrest in human DU145 cells assessed as accumulation at mid-S phase at 10 uM after 24 hrs by flow cytometry; format: functional, cell-based

Epidermal growth factor receptor, sequence (P00533 whole entry): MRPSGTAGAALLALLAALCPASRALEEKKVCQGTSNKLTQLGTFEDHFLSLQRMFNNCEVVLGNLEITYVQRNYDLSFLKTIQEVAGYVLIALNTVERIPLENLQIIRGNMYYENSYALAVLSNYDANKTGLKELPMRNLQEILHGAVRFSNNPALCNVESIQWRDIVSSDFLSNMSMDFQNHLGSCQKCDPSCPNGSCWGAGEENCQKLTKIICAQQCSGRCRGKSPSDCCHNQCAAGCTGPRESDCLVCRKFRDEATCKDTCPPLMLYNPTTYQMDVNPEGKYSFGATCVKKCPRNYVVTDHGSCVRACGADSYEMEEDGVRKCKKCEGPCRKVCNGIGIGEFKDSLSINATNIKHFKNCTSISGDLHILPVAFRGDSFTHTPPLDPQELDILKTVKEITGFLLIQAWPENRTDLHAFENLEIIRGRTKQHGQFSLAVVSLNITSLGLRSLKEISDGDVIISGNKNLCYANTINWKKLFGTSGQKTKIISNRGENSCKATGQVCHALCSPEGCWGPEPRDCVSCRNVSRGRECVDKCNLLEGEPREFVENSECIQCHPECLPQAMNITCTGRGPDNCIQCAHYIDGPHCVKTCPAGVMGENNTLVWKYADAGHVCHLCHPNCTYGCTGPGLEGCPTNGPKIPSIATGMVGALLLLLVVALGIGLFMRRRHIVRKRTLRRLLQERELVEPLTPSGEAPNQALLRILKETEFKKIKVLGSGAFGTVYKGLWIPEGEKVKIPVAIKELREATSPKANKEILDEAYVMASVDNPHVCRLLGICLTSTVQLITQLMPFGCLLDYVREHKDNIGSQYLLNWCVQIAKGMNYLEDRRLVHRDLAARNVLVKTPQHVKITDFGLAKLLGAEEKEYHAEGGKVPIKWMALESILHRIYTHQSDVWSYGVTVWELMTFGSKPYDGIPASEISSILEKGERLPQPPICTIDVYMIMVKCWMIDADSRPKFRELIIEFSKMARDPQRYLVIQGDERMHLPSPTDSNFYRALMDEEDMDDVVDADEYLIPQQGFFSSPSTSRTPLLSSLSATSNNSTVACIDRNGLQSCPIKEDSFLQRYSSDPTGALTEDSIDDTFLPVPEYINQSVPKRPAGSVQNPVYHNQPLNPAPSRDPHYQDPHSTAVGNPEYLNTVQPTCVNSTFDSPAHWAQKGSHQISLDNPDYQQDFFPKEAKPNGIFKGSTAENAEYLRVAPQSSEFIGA

| SMILES | IC50 [1] [µM] | IC50 (NIH3T3 [2]; Mus musculus, NIH3T3, 72 h) [µM] | IC50 (DU-145 [3]; Homo sapiens, DU-145, 72 h) [µM] | IC50 (NIH3T3 [4]; Mus musculus, NIH3T3, 72 h) [µM] | Activity (DU-145 [5]) | Activity (DU-145 [6]) | Activity (DU-145 [7]) | IC50 (NIH3T3 [2]; nih3t3) [µM] | IC50 (DU-145 [3]; du-145) [µM] | IC50 (NIH3T3 [4]; nih3t3) [µM] |
| --- | --- | --- | --- | --- | --- | --- | --- | --- | --- | --- |
| ClCCN(CCNN=Nc1ccc2ncnc(Nc3cccc(Cl)c3)c2c1)c1ccc(Cl)cc1 | 2.2 | 27.6 | 4.7 | 12 |  |  |  |  |  |  |
| CN(CCCl)CCN/N=N/c1ccc2ncnc(Nc3cccc(Cl)c3)c2c1 | 0.0044 | 27.2 | 2.6 | 1.31 | Dose-dependent effect | Active | Active |  |  |  |
| COc1ccc(N(CCN=NNc2ccc3ncnc(Nc4cccc(Cl)c4)c3c2)CC(C)Cl)cc1 (stereo not given) | 0.97 | 21.5 | 11.4 | 5.75 |  |  |  |  |  |  |
| ClCCN(CCNN=Nc1ccc2ncnc(Nc3cccc(Cl)c3)c2c1)Cc1ccccc1 | 0.071 | 15.2 | 10.6 | 2.93 |  |  |  |  |  |  |
| Nc1ccc2ncnc(Nc3cccc(Cl)c3)c2c1 |  |  |  |  |  |  |  | 38.4 | 34.1 | 3.19 |
| CN(C)CCN/N=N/c1ccc2ncnc(Nc3cccc(Cl)c3)c2c1 | 0.037 | 39.5 | 37.2 | 1.67 |  |  |  |  |  |  |
| COc1ccc(N(CCCl)CCN/N=N/c2ccc3ncnc(Nc4cccc(Cl)c4)c3c2)cc1 | 3.96 | 9.07 | 7.95 | 6.22 |  |  |  |  |  |  |

Reference: ChEMBL document CHEMBL1143067, “Novel nitrogen mustard-armed combi-molecules for the selective targeting of epidermal growth factor receptor overexperessing solid tumors: discovery of an unusual structure-activity relationship” (J Med Chem, 2007)
